Where two headings read alike, the source gives them in different places.
Key:
AmtB = target: T1, AmtB (Escherichia coli, UniProt P69681); assay: Native MS lipid titration, lipid binding to AmtB (equilibrium-coupled binding model); details: 50 µM ADP, 298 K
T1 construct: pelB signal peptide (N, cleaved yes); 10x His-tag (N, cleaved yes); made in house; host or cells: Escherichia coli C41(DE3), pET15b
Method: (§1) A stock of ADP was prepared by dissolving the ammonium salt form of ADP in water followed by adjusting the pH with ammonium hydroxide to 7.0. Serial dilutions into MS buffer (200 mM ammonium acetate, 0.5% C8E4, and pH adjusted to 7.4 with ammonium hydroxide) supplemented with 5 mM BME was performed to prepare ADP at certain concentrations. Phospholipids were prepared as previously described. In brief, stock solutions of each phospholipid were resuspended in chloroform, aliqouted, and chloroform was removed by a steady stream on nitrogen gas. Lipid films were placed under vacuum overnight to prepare to resuspend in MS buffer supplemented with 5 mM 2-mercaptoethanol. Phospholipid concentration was determined by phosphorus analysis.

AmtB–GlnK complex = target: T2, AmtB–GlnK complex (Escherichia coli, UniProt P69681); assay: Native MS lipid titration, lipid binding to AmtB–GlnK (equilibrium-coupled binding model); details: 50 µM ADP, 298 K
T2 construct: pelB signal peptide (N, cleaved yes); 10x His-tag (N, cleaved yes); made in house; host or cells: AmtB: Escherichia coli C41(DE3), pET15b; stGlnK: Escherichia coli ArcticExpress (DE3) RIL, pET28b
Method: as §1

AmtB–GlnK interaction = target: T3, AmtB–GlnK interaction (Escherichia coli, UniProt P69681); assay: Native MS lipid titration, GlnK binding to apo or lipid-bound AmtB; coupling factors (allosteric modulation); details: for Kd: 50 µM ADP, 298 K; for Coupling factor a1: first bound lipid; for increase in the coupling factor per lipid-binding event: linear fit to the coupling factors as a function of bound lipid; for allosteric modulation of AmtB–GlnK (from coupling factors) / effect of lipid-binding events on K D,ALnG: result in words; for Coupling factor a2: second bound lipid; for Coupling factor a3: third bound lipid
T3 construct: pelB signal peptide (N, cleaved yes); 10x His-tag (N, cleaved yes); made in house; host or cells: AmtB: Escherichia coli C41(DE3), pET15b; stGlnK: Escherichia coli ArcticExpress (DE3) RIL, pET28b
Method: as §1

GlnK = target: GlnK; set-up: method as in earlier work; details: 298K, absence of detergent, ref 2 (supplement), cited from earlier work
[1] = KD,AL1, first lipid binding to AmtB
[2] = KD,AL2, second lipid binding to AmtB
[3] = KD,AL3, third lipid binding to AmtB
[4] = KD,AGL1, first lipid binding to AmtB–GlnK
[5] = KD,AGL2, second lipid binding to AmtB–GlnK
[6] = KD,AGL3, third lipid binding to AmtB–GlnK
[7] = KD,AG, GlnK binding apo AmtB, from global fit of the titration with the named lipid
[8] = KD,AL2G, GlnK binding AmtB bound to 2 lipids
[9] = KD,AL3G, GlnK binding AmtB bound to 3 lipids
[10] = KD,ALG, GlnK binding AmtB bound to 1 lipid

T1 sequence (P69681 23-428): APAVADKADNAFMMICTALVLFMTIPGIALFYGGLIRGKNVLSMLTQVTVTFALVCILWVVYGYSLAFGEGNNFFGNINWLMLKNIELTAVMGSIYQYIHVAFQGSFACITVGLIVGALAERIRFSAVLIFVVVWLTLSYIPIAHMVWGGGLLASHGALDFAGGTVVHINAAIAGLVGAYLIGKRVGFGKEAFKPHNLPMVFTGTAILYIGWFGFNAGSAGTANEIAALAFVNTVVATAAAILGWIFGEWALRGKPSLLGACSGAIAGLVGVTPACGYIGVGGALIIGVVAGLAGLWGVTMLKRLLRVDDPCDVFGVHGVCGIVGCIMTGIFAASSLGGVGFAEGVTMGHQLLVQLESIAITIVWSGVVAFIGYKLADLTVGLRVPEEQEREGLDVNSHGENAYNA
T3 sequence (P0AC55 whole entry Y51F): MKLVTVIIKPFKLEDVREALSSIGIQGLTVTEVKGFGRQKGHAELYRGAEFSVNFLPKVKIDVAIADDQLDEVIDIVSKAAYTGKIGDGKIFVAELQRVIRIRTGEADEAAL
T3 sequence (P69681 23-428): as the sequence (P69681 23-428) above
T2 sequence (P0AC55 whole entry Y51F): as the sequence (P0AC55 whole entry Y51F) above
T2 sequence (P69681 23-428): as the sequence (P69681 23-428) above

| SMILES | Kd (AmtB; [1]) [µM] | Kd (AmtB; [2]) [µM] | Kd (AmtB; [3]) [µM] | Kd (AmtB–GlnK complex; [4]) [µM] | Kd (AmtB–GlnK complex; [5]) [µM] | Kd (AmtB–GlnK complex; [6]) [µM] | Kd (AmtB–GlnK interaction; [7]) [µM] | Kd (AmtB–GlnK interaction; [8]) [µM] | Kd (AmtB–GlnK interaction; [9]) [µM] | Kd (AmtB–GlnK interaction; [10]) [µM] | Coupling factor a1 (AmtB–GlnK interaction) | allosteric modulation of AmtB–GlnK (from coupling factors) (AmtB–GlnK interaction) | effect of lipid-binding events on K D,ALnG (AmtB–GlnK interaction) | Coupling factor a2 (AmtB–GlnK interaction) | Coupling factor a3 (AmtB–GlnK interaction) | further results |
| --- | --- | --- | --- | --- | --- | --- | --- | --- | --- | --- | --- | --- | --- | --- | --- | --- |
| CCCCCCCC/C=C\CCCCCCCC(=O)O[C@H](COC(=O)CCCCCCCCCCCCCCC)COP(=O)(O)OCCN [POPE] | 21.1 ± 0.27 | 55.3 ± 9.22 | 96.2 ± 27 | 16.3 ± 0.4 | 33.6 ± 1.24 | 47.7 ± 7.02 | 0.504 ± 0.0616 | 0.245 ± 0.0372 | 0.137 ± 0.0482 | 0.391 ± 0.0593 | 1.30 ± 0.04 | positive allosteric modulation | decrease in K D,ALnG with each consecutive binding event | 1.63 ± 0.24 | 2.04 ± 0.37 | increase in the coupling factor per lipid-binding event (AmtB–GlnK interaction): 0.4 |
| CCCCCCCC/C=C\CCCCCCCC(=O)OC[C@H](COP(=O)(O)OCCN)OC(=O)CCCCCCC/C=C\CCCCCCCC [DOPE (cis)] | 15.1 ± 0.63 | 36.9 ± 2.85 | 57.6 ± 13.3 | 12.3 ± 0.39 | 27.6 ± 1.09 | 32.9 ± 2.11 | 0.517 ± 0.0504 | 0.315 ± 0.0269 | 0.206 ± 0.0621 | 0.421 ± 0.0375 | 1.23 ± 0.02 |  |  | 1.34 ± 0.10 | 1.71 ± 0.31 |  |
| CCCCCCCC/C=C\CCCCCCCC(=O)OC[C@H](COP(=O)(O)OCC(O)COP(=O)(O)OC[C@@H](COC(=O)CCCCCCC/C=C\CCCCCCCC)OC(=O)CCCCCCC/C=C\CCCCCCCC)OC(=O)CCCCCCC/C=C\CCCCCCCC (some centres unmarked) [TOCDL, 1,1′,2,2′-tetraoleoyl-cardiolipin] |  |  |  |  |  |  |  |  |  |  | 1.17 ± 0.09 | neutral allosteric modulation | little effect on K D,ALnG | 1.03 ± 0.06 | 1.11 ± 0.15 | Kd (AmtB; read-out: KD,AL1, first lipid binding to AmtB): 19.9 ± 1.65 µM; Kd (AmtB; read-out: KD,AL2, second lipid binding to AmtB): 30.2 ± 2.05 µM; Kd (AmtB; read-out: KD,AL3, third lipid binding to AmtB): 33.1 ± 6.01 µM; Kd (AmtB–GlnK complex; read-out: KD,AGL1, first lipid binding to AmtB–GlnK): 17 ± 0.17 µM; Kd (AmtB–GlnK complex; read-out: KD,AGL2, second lipid binding to AmtB–GlnK): 29.3 ± 1.42 µM; Kd (AmtB–GlnK complex; read-out: KD,AGL3, third lipid binding to AmtB–GlnK): 29.5 ± 1.68 µM; Kd (AmtB–GlnK interaction; read-out: KD,AG, GlnK binding apo AmtB, from global fit of the titration with the named lipid): 0.517 ± 0.0312 µM; Kd (AmtB–GlnK interaction; read-out: KD,AL2G, GlnK binding AmtB bound to 2 lipids): 0.443 ± 0.0689 µM; Kd (AmtB–GlnK interaction; read-out: KD,AL3G, GlnK binding AmtB bound to 3 lipids): 0.414 ± 0.0776 µM; Kd (AmtB–GlnK interaction; read-out: KD,ALG, GlnK binding AmtB bound to 1 lipid): 0.45 ± 0.0561 µM |
| CCCCCCCCCCCC(=O)OC[C@H](COP(=O)(O)OCC(O)CO)OC(=O)CCCCCCCCCCC (some centres unmarked) [DLPG] | 22.5 ± 3.23 | 39.1 ± 9.25 | 34.03 ± 0.15 | 17.1 ± 1.96 | 28.6 ± 3.98 | 29.1 ± 2.27 | 0.522 ± 0.0258 | 0.313 ± 0.0435 | 0.271 ± 0.0539 | 0.401 ± 0.0148 | 1.30 ± 0.04 |  |  | 1.35 ± 0.26 | 1.19 ± 0.15 |  |
| CCCCCCCC/C=C/CCCCCCCC(=O)OC[C@H](COP(=O)(O)OCCN)OC(=O)CCCCCCC/C=C/CCCCCCCC [DOPE (trans)] | 29.7 ± 2.18 | 159 ± 57.3 |  | 19 ± 0.42 | 46 |  | 0.556 ± 0.0327 | 0.121 ± 0.0256 |  | 0.356 ± 0.0141 | 1.57 ± 0.14 | greater positive allosteric modulation |  | 3.29 ± 0.82 | 5.28 ± 1.82 |  |
| CCCCCCCC/C=C\CCCCCCCC(=O)O[C@H](COC(=O)CCCCCCCCCCCCCCCCC)COP(=O)(O)OCCN [SOPE] | 16.4 ± 1.39 | 46.6 ± 9.46 | 73.6 ± 22 | 14.5 ± 1.28 | 2.85 ± 2.32 | 45.2 ± 7.56 | 0.528 ± 0.0448 | 0.321 ± 0.0944 | 0.215 ± 0.0607 | 0.482 ± 0.0919 | 1.16 ± 0.19 |  |  | 1.60 ± 0.19 | 1.57 ± 0.25 |  |
| CCCCCCCC/C=C\CCCCCCCC(=O)O[C@H](COC(=O)CCCCCCCCCCCCCCC)COP(=O)(O)OC[C@H](N)C(=O)O [POPS] | 10.5 ± 0.97 | 21.8 ± 1.97 | 30.4 ± 4.97 | 9.18 ± 0.6 | 19.9 ± 0.36 | 26.7 ± 1.82 | 0.499 ± 0.0347 | 0.405 ± 0.0395 | 0.363 ± 0.0372 | 0.446 ± 0.0644 | 1.15 ± 0.09 | neutral allosteric modulation | little effect on K D,ALnG | 1.09 ± 0.08 | 1.13 ± 0.10 |  |
| CCCCCCCC/C=C\CCCCCCCC(=O)O[C@H](COC(=O)CCCCCCCCCCCCCCC)COP(=O)([O-])OCC[N+](C)(C)C [POPC] | 29.2 ± 5.99 | 68.3 ± 4.81 | 104 ± 7.56 | 18.9 ± 1.36 | 40.3 ± 3.92 | 59.5 ± 17.9 | 0.486 ± 0.0325 | 0.192 ± 0.0112 |  | 0.345 ± 0.0822 | 1.52 ± 0.23 |  | decrease in K D,ALnG with each consecutive binding event | 1.76 ± 0.31 | 2.50 ± 0.80 |  |
| Nc1ncnc2c1ncn2[C@@H]1O[C@H](COP(=O)(O)OP(=O)(O)O)[C@@H](O)[C@H]1O [ADP, adenosine diphosphate] |  |  |  |  |  |  |  |  |  |  |  |  |  |  |  | Kd (GlnK; read-out: KD for GlnK binding the first ADP molecule): 20 µM; Kd (GlnK; read-out: KD for GlnK binding the second ADP molecule): 56 µM; Kd (GlnK; read-out: KD for GlnK binding the third ADP molecule): 100 µM |
| CCCCCCCC/C=C\CCCCCCCC(=O)O[C@H](COC(=O)CCCCCCCCCCCCCCC)COP(=O)(O)OCC(O)CO (some centres unmarked) [POPG] | 13.5 ± 0.73 | 33.3 ± 6.39 | 56.7 ± 11.8 | 12.04 ± 0.06 | 25.4 ± 1.11 | 34.3 ± 3.4 | 0.54 ± 0.0267 | 0.396 ± 0.0754 | 0.313 ± 0.162 | 0.485 ± 0.0356 | 1.12 ± 0.06 | positive allosteric modulation | decrease in K D,ALnG with each consecutive binding event | 1.30 ± 0.21 | 1.74 ± 0.46 | increase in the coupling factor per lipid-binding event (AmtB–GlnK interaction): 0.3 |
| CCCCCCCC/C=C\CCCCCCCC(=O)O[C@H](COC(=O)CCCCCCCCCCCCCCC)COP(=O)(O)O [POPA] | 8.11 ± 0.41 | 18.1 ± 1.18 | 24.7 ± 2.44 | 10 ± 0.31 | 19.8 ± 0.58 | 26.2 ± 2.19 | 0.517 ± 0.0463 | 0.707 ± 0.0945 | 0.75 ± 0.0992 | 0.644 ± 0.0735 | 0.81 ± 0.02 | slight negative allosteric modulation | each binding event weakening the molecular interaction between AmtB and GlnK | 0.92 ± 0.04 | 0.94 ± 0.04 |  |
| CCCCCCCCCCCCCC(=O)OC[C@H](COP(=O)(O)OCC(O)CO)OC(=O)CCCCCCCCCCCCC (some centres unmarked) [DMPG] | 6.78 ± 0.19 | 14.6 ± 1.2 | 20.27 ± 0.12 | 6.92 ± 0.33 | 14.1 ± 0.35 | 19.6 ± 0.33 | 0.551 ± 0.0134 | 0.543 ± 0.0387 | 0.523 ± 0.0284 | 0.561 ± 0.0235 | 0.99 ± 0.05 | neutral allosteric modulation |  | 1.04 ± 0.04 | 1.04 ± 0.02 |  |
| CCCCCCCCCCCCCCCC(=O)OC[C@H](COP(=O)(O)OCC(O)CO)OC(=O)CCCCCCCCCCCCCCC (some centres unmarked) [DPPG] | 18.5 ± 1.85 | 63.8 ± 13.2 | 99.8 ± 45.3 | 14.8 ± 0.64 | 31.7 ± 1.89 | 53.4 ± 16.6 | 0.521 ± 0.0158 | 0.23 ± 0.0559 | 0.164 ± 0.0721 | 0.424 ± 0.0361 | 1.25 ± 0.10 |  |  | 1.98 ± 0.32 | 1.66 ± 0.33 |  |

Source: article PMC5736629, “Allosteric modulation of protein-protein interactions by individual lipid binding events” (Nature Communications, 2017)
